{"source": "patent US20050148514A1", "about": "“Method and composition for treatment of angiogenesis” (priority 2003, published 2005)", "key": {"[1]": {"test_system": "ERK", "assay": "Intrinsic effect on ERK phosphorylation (western blot)", "type": "cell-based", "procedure": "In order to investigate the potential intracellular pathways triggered by the PCK3145 derivative, a gene-reporter assay using the SEAP (Secreted Alkaline Phosphatase) Mercury Profiling Kit (CLONTECH) was performed in glioma cells (U-87). This assay enables the monitoring of transcription factors that are triggered by a particular experimental condition by assaying the alkaline phosphatase activity in the extracellular media. […] The induction of the MAPK pathway by the PCK3145 derivative is further confirmed by the rapid and transient induction of ERK phosphorylation between 5-10 minutes (FIG. 8B) and is shown to be dose-dependent (FIG. 8C). Finally, the effects of the PCK3145 derivative were also compared to those of a scrambled peptide."}, "[2]": {"test_system": "ERK", "assay": "PDGF-induced ERK phosphorylation in PASMC", "type": "cell-based", "conditions": "treatment as for HUVEC", "procedure": "Cell culture. Human umbilical vein endothelial cells (HUVEC) and pulmonary aortic smooth muscle cells (PASMC) were obtained from Clonetics and maintained in endothelial cell basal medium-2, (EBM-2; Clonetics) and smooth muscle medium-2 (SmGM-2; Clonetics), respectively. Cells were cultured at 37° C. under a humidified atmosphere containing 5% CO2. For experimental purposes, cells were plated in 8 100-mm plastic dishes at 5,000 cells/cm^2 and were grown to confluence before overnight serum starvation. Cells were treated with vehicle or with a PCK3145 derivative diluted in 0.1 N NaOH, and stimulated with 50 ng/ml VEGF, PDGF or with 1 μM S1P.\nImmunoprecipitation and immunoblotting procedures. After treatment, cells were washed once with phosphate-buffered saline (PBS) containing 1 mM sodium orthovanadate and were incubated in the same medium for 1 h at 4° C. The cells were solubilized on ice in lysis buffer (150 mM NaCl, 10 mM Tris-HCl, pH 7.4, 1 mM EDTA, 1 mM EGTA, 0.5% Nonidet P-40, 1% Triton X-100) containing 1 mM sodium orthovanadate. The cells were then scraped from the culture dishes and the resulting lysates were clarified by centrifugation at 10,000 g for 10 min. Protein concentrations were determined using the micro bicinchoninic acid method. For immunoprecipitation studies, lysates were clarified by a 1 h incubation at 4° C. with a mixture of Protein A/Protein G Sepharose beads. […]"}, "[3]": {"test_system": "total MMP-9, i.e., human active and pro-MMP-9", "assay": "Total MMP-9 ELISA (Quantikine) on plasma of prostate cancer patients treated with the drug", "type": "in vivo", "conditions": "for MMP-9 level in plasma, D27C1: day 27 of treatment cycle 1; for Maximum Reduction of MMP-9: versus baseline D1C1; for MMP-9 level in plasma, D27C2: day 27 of treatment cycle 2", "procedure": "The reconstituted drug used in the present example is made from a solution containing a 20 mg/mL of PCK3145 derivative (SEQ ID NO.:5 derivative); SEQ ID NO.: 7, in a phosphate buffer at pH 7.4 for dilution in sterile saline (0.9% NaCl, BP) prior to intravenous administration. The solutions is filled into Type 1 glass vials, stoppered with Teflon®-faced butyl stoppers, and sealed with flip-off seals.\nThe drug was administered to patients characterized as having metastatic adenocarcinoma of the prostate, stage 1V prostatic cancer and as having a metastatic hormone resistant prostatic cancer.\nBiological samples were drawn during different time points. Plasma samples were placed on dry ice and stored frozen (approximately −70° C.) and subsequently analyzed for total MM P-9 levels.\nMMP-9 assay methodology. An Elisa assay measuring total MMP-9, i.e., human active and pro-MMP-9, (Quantikine®, Cat. No.: DMP900, R&D Systems Inc.) was performed on plasma-heparin samples. Plasma samples have been collected from individuals at day 1 (before treatment) and at day 27 of each treatment cycle.\nThe Quantikine® MMP-9 immunoassay is a solid phase ELISA designed to measure total MMP-9 (92 kDa pro- and 82 kDa active forms) in serum, plasma, saliva, urine and cell culture supernatants. It is calibrated with CHO-cells expressed recombinant human pro-MMP-9 and the antibodies were raised against the recombinant factor. Both antibodies also recognize recombinant human active MMP-9.\nThe assay employs the quantitative sandwich enzyme immunoassay technique. A monoclonal antibody specific for MMP-9 has been pre-coated onto a microplate. Standards and samples are added into the wells, and MMP-9 is thus bound by the immobilized antibody. After washing away unbound substances, an enzyme-linked polyclonal antibody specific for MMP-9 is added to the wells. Following a wash to remove unbound antibody-enzyme reagent, a substrate solution is added to the wells and color develops in proportion to the amount of total MMP-9 (pro and/or active) bound in the initial step. The color development is stopped and the intensity of the color is measured.\nResults of MMP-9 levels in patient's plasma, before and after one or more treatment cycle with PCK3145 derivative; SEQ ID NO.: 7 are illustrated in Table 2.\nNormal values of healthy volunteers were not determined in this study but lizasa et al., has determined that the normal range of plasma MMP-9 concentrations is about 11.4 to 59.4 ng/ml. Based on theses values, patients were sub-divided into two categories; those having normal value of MMP-9 (below 100 μg/L) and those having an elevated level of MMP-9 (higher than 100 μg/L) at baseline (see column identified as D1C1 in Table2)."}}, "note": "Where no end group is shown, it is not given here.", "data": [{"sequence": "EWQTDNCETCTCYET (cysteine pairing not given here)", "values": [{"measurement": "dose dependence of induction of ERK phosphorylation", "setting": "[1]; dose-response", "result": "dose-dependent"}, {"measurement": "time of rapid and transient induction of ERK phosphorylation", "setting": "[1]; time-course, no growth factor", "result": "5 to 10", "unit": "min"}, {"measurement": "PDGF-induced ERK phosphorylation", "setting": "[2]", "result": "inhibition"}, {"measurement": "change in MMP-9 levels compared to baseline", "setting": "[3]; elevated MMP-9 category (patients A, B, C and D), each patient after one cycle of treatment", "result": "significant decrease"}, {"measurement": "change in MMP-9 levels compared to baseline", "setting": "[3]; normal value MMP-9 category (patients E, F, G, H and I), after one cycle of treatment", "result": "no significant decrease"}, {"measurement": "decrease in MMP-9 levels compared to baseline levels", "setting": "[3]; patient A, after one cycle of treatment", "result": "up to 89%"}, {"measurement": "MMP-9 level in plasma, D27C1", "setting": "[3]; patient A, elevated MMP-9 (baseline D1C1 424)", "result": 47.3, "unit": "µg/L"}, {"measurement": "Maximum Reduction of MMP-9", "setting": "[3]; patient A", "result": 89, "unit": "%"}, {"measurement": "decrease in MMP-9", "setting": "[3]; patient B, after cycle 1", "result": 41, "unit": "%"}, {"measurement": "MMP-9 level in plasma, D27C1", "setting": "[3]; patient B, elevated MMP-9 (baseline D1C1 156.5)", "result": 91.6, "unit": "µg/L"}, {"measurement": "reduction of baseline level of MMP-9", "setting": "[3]; patient B, treatment cycle 2", "result": 64, "unit": "%"}, {"measurement": "reduction of baseline level of MMP-9", "setting": "[3]; patient B, treatment cycle 3", "result": 65, "unit": "%"}, {"measurement": "reduction of baseline level of MMP-9", "setting": "[3]; patient B, treatment cycle 4", "result": 75, "unit": "%"}, {"measurement": "Maximum Reduction of MMP-9", "setting": "[3]; patient B", "result": 75, "unit": "%"}, {"measurement": "decrease in MMP-9", "setting": "[3]; patient C, at cycle 1", "result": 90, "unit": "%"}, {"measurement": "reduction in MMP-9 levels", "setting": "[3]; patient C, cycle 2", "result": 76, "unit": "%"}, {"measurement": "MMP-9 level in plasma, D27C1", "setting": "[3]; patient C, elevated MMP-9 (baseline D1C1 155)", "result": 14.9, "unit": "µg/L"}, {"measurement": "Maximum Reduction of MMP-9", "setting": "[3]; patient C", "result": 90, "unit": "%"}, {"measurement": "decrease in MMP-9", "setting": "[3]; patient D, at cycle 1", "result": 34, "unit": "%"}, {"measurement": "MMP-9 level in plasma, D27C1", "setting": "[3]; patient D, elevated MMP-9 (baseline D1C1 130.2)", "result": 85.2, "unit": "µg/L"}, {"measurement": "Maximum Reduction of MMP-9", "setting": "[3]; patient D", "result": 34, "unit": "%"}, {"measurement": "MMP-9 level in plasma, D27C2", "setting": "[3]; patient E (baseline D1C1 57.5)", "result": 60.1, "unit": "µg/L"}, {"measurement": "change in MMP-9 levels compared to baseline", "setting": "[3]; patient E, after 3 cycles of treatment", "result": "still no MMP-9 decrease"}, {"measurement": "MMP-9 level in plasma, D27C1", "setting": "[3]; patient E, normal MMP-9 (baseline D1C1 57.5)", "result": 58, "unit": "µg/L"}, {"measurement": "MMP-9 level in plasma, D27C1", "setting": "[3]; patient F, normal MMP-9 (baseline D1C1 53.2)", "result": 73.1, "unit": "µg/L"}, {"measurement": "MMP-9 level in plasma, D27C2", "setting": "[3]; patient G (baseline D1C1 33.9)", "result": 189.6, "unit": "µg/L"}, {"measurement": "MMP-9 level in plasma, D27C1", "setting": "[3]; patient G, normal MMP-9 (baseline D1C1 33.9)", "result": 45.4, "unit": "µg/L"}, {"measurement": "MMP-9 level in plasma, D27C2", "setting": "[3]; patient H (baseline D1C1 57.0)", "result": 65, "unit": "µg/L"}, {"measurement": "MMP-9 level in plasma, D27C1", "setting": "[3]; patient H, normal MMP-9 (baseline D1C1 57.0)", "result": 44.0, "unit": "µg/L"}, {"measurement": "MMP-9 level in plasma, D27C1", "setting": "[3]; patient I, normal MMP-9 (baseline D1C1 22.1)", "result": 18.8, "unit": "µg/L"}, {"measurement": "change in MMP-9 levels compared to baseline", "setting": "[3]; patients E and G, after 2 cycles of treatment", "result": "no decrease in MMP-9 levels was observed"}]}]}
